Values of other authors, collected in patent US8338382B2, “Method of treating impaired mitochondrial function” (priority 1997, dated 2012).

Test system: depressed patients
Details: literature (Sabelli 2002, 2000)

NCCc1ccccc1 [PEA, 2-Phenylethylamine]
share of depressed patients in whom PEA is effective / controls depression: 60%
toxic effects, tolerance or abuse: no toxic effects, tolerance or abuse
